From US20080090780A1, “Storage stable azadirachtin pesticide formulation” (PBI/GORDON CORPORATION, priority 2006, published 2008) come the findings set out here.

Where two headings read alike, the source gives them in different places.

One data set deals with potato aphids. Briefly: Greenhouse tests on live potato aphids on tomatoes. In kind it is in vivo. To be noted: Azadirachtin 0.0008 lbs/gal, bifenthrin 0.005 lbs/gal, combination as labelled.
The format of data set [1] is physicochemical. The conditions noted are these: for % Decomposition of AZA A and PYR: JeffSol AG-1555, Triton X-100; for loss of AZA A: AZA alone without incorporation of a PYR (Table 2). The source says: This invention relates to a storage stable, efficacious pesticide formulation dilutable by the user that contains azadirachtin made up of azadirachtin A and azadirachtin B, a pyrethrin or pyrethroid, a solvent, and an emulsifier. The pyrethrin or pyrethroid complexes with and minimizes decomposition of the azadirachtin A. An amount of the pyrethrin or pyrethroid is incorporated to form a complex with the azadirachtin A on opposite sides of the molecular structure thereof. […] Preferably, an aprotic heterocyclic or mono, di-, or polycyclic aromatic solvent is provided having C2-C25 carbon atoms and that is compatible with the azadirachtin A and pyrethrin or pyrethroid. In addition, a non-ionic emulsifier is preferably included in the formulation.
When a PYR was added to AZA A, the decomposition pathway of AZA A was stabilized, as shown by Table 2.
FIG. 1 is a plot of the percent AZA A decomposition on the Y-axis, as compared with the mole ratio of bifenthrin/AZA A on the X-axis, under an accelerated aging test of 30 days at 40° C. The loss of AZA A decreased as the mole ratio of PYR to AZA A approached 2:1, where the PYR was present in an amount to form a complex with the AZA A on opposite sides of the molecular structure thereof and sufficient to prevent further decomposition of the AZA A.
FIG. 3 compares the percent of AZA A decomposition on the Y-axis with the mole ratio of zeta cypermethrin to AZA A on the X-axis, also under an accelerated aging test of 30 days at 40° C.

Data set [2] is described as follows: Azadirachtin stability tests in seed oil carrier (soybean oil / Tween 85 containing 5% water). Format: physicochemical. The conditions noted are these: Soybean Oil (50% Seed Oil/50% Tween 85 containing 5% water), 40° C., 32 Days. An excerpt:
AZA plus PYRs have been studied in conventional oil systems, such as soybean oil, canola oil, methylated soybean oil, epoxidized soybean oil, rape seed oil, and olive oil, all of which contained an emulsifier having as much as 5% of water. None of these oils in combination with the PYR stabilized the AZA A in the formulation, largely because of the presence of moisture in the emulsifier. When AZA is combined with PYR and the types of solvents and emulsifiers disclosed herein, the AZA A of the formulation is stabilized. Table 9 records test results of AZA+soybean oil as compared with AZA+PYR+soybean oil.

The mark [3] stands for this setting: Azadirachtin A/B 0.50% + Bifenthrin 2.01%, 1 Month/40° C.
[4] abbreviates: Azadirachtin A/B 0.50% + Bifenthrin 2.01%, 1 Month/Ambient.
Where [5] appears, read: Azadirachtin A/B 1.50% + 1.50% second active, 1 Month/40° C.
[6] abbreviates: Azadirachtin A/B 1.50% + 1.50% second active, 1 Month/Ambient.
Setting [7] is: Azadirachtin A/B 1.75% + Bifenthrin 1.00%, 1 Month/40° C.
The mark [8] stands for this setting: Azadirachtin A/B 2.00% + Bifenthrin 0.50%, 1 Month/40° C.

Turning to `Cc1c(COC(=O)[C@@H]2[C@H](/C=C(\Cl)C(F)(F)F)C2(C)C)cccc1-c1ccccc1` (racemic) [Bifenthrin, bifenthrin], the “Live potato aphids on tomatoes (aphid mean numbers)” value is recorded as 357 a with potato aphids (0 DAT1); 162 b in the data set on potato aphids (0 DAT2); 131 b in the data set with potato aphids (3 DAT1); 89 b in the data set with potato aphids (3 DAT2); 179 b with potato aphids (7 DAT1); 64 b in the data set with potato aphids (7 DAT2). Further, the “% Decomposition of AZA A and PYR” value is on record as −2.67% in data set [1] (setting [3]); −2.42% in data set [1] (setting [4]); −2.96% in data set [1] (setting [5]); −2.82% in data set [1] (setting [6]); −2.21% in data set [1] (setting [7]); −0.82% in data set [1] (setting [8]). In addition, in data set [1] (Bifenthrin only 3.01% AI, 1 Month/40° C.), the “% Decomposition of AZA A and PYR” value is on record as −2.54%.

Turning to `C/C=C(\C)C(=O)O[C@H]1C[C@@H](OC(C)=O)[C@@]2(C(=O)OC)CO[C@@H]3C2[C@]12CO[C@@](O)(C(=O)OC)[C@H]2[C@](C)(C12OC1(C)C1C[C@H]2O[C@@H]2OC=CC12O)[C@@H]3O` (stereo partly drawn) [AZA A, azadirachtin A], the “loss of AZA A (percent of AZA A decomposition)” value in data set [1] (1:1 mole ratio zeta cypermethrin to AZA A, accelerated aging test of 30 days at 40° C., FIG. 3) is 1%. Moreover, the “loss of AZA A” value in data set [1] is reported as “more than 12%”.

Regarding azadirachtin [Azadirachtin A/B], the “Live potato aphids on tomatoes (aphid mean numbers)” value in the data set with potato aphids (0 DAT1) was found to be 338 a; with potato aphids (0 DAT2), 11 c; in the data set with potato aphids (3 DAT1), 120 b; in the data set with potato aphids (3 DAT2) it was 3 c; in the data set on potato aphids (7 DAT1), 18 c; in the data set on potato aphids (7 DAT2), 1 c. In data set [1], the “loss of AZA A” value came out at 12.64%. Moreover, the “% Decomposition of AZA A and PYR” value in data set [1] (setting [3]) is −4.30%; in data set [1] (setting [4]), −1.03%; in data set [1] (setting [5]), −4.20%; in data set [1] (setting [6]), −0.14%; in data set [1] (setting [7]), −7.37%; in data set [1] (setting [8]) it was −7.61%. Moreover, the “% Decomposition of AZA A and PYR” value in data set [1] (Azadirachtin A/B only 3.01% AI, 1 Month/40° C.) was −12.64%. Besides, the “AZA A Stability in Formulation” value is recorded as −54.27% in data set [2] (AZA A/B 0.50% + Bifenthrin 2.00%), −52.62% in data set [2] (AZA A/B 0.50% + Permethrin 2.00%), −48.25% in data set [2] (AZA A/B 0.50% + Z-Cypermethrin 2.00%) and −27.02% in data set [2] (AZA A/B 3.00% alone).
